How the values were obtained:
[1] = reproductive
Anas platyrhynchos = conditions: acute, oral, unspecified
Aphidius rhopalosiphi = conditions: not reported; mortality
Apis mellifera = conditions: acute; duration: 48 hours; dermal; mortality
Canidae = conditions: oral, Dog Other
Colinus virginianus = conditions: oral; for LD50: acute, mortality
Coturnix japonica = conditions: reproduction developmental; duration: 6 weeks
Cyprinus carpio = conditions: acute; duration: 96 hours; mortality
Daphnia magna = conditions: chronic/long-term; duration: 21 days; reproduction
Homo sapiens = conditions: clinical; oral; capsule; clinical signs
Landoltia sp. = conditions: chronic/long-term; duration: 14 days
Pimephales promelas = conditions: chronic/long-term; duration: 34 days; reproduction
Rattus norvegicus = conditions: acute; oral; mortality
Zea sp. = conditions: chronic/long-term

## O=P(O)(O)CCCl [Ethephon]
[1]
  NOAEL: 22.8 mg/kg-day
Anas platyrhynchos
  NOEL: 450 mg/kg
Anas platyrhynchos; mortality
  LD50: 1420 mg/kg
Aphidius rhopalosiphi
  LEL: 480 g/ha
Apis mellifera
  LD50: > 100 µg/piece
Canidae; chronic, duration: 1 years, body weight
  NOAEL: 27 mg/kg-day
Canidae; short-term, duration: 28 days, clinical chemistry
  NOAEL: 6 mg/kg-day
Colinus virginianus; duration: 8 days, diet
  LD50: > 450 mg/kg
Colinus virginianus
  LD50: 764 mg/kg
Colinus virginianus; short-term, duration: 8 days, diet
  NOEL: > 530 mg/kg-day
Coturnix japonica
  NOEL: 159 mg/kg-day
Cyprinus carpio
  LC50: > 100 µg/mL
Daphnia magna
  NOEC: 67 mg/L
Homo sapiens
  NOAEL: 0.5 mg/kg-day
Landoltia sp.
  NOEC: < 0.1 mg/L
Pimephales promelas
  NOEC: 43 mg/L
Rattus norvegicus
  LD50: 1560 mg/kg
Tagia sp.; acute, duration: 14 days, mortality
  LC50: > 60000 g/ha
Tagia sp.; chronic/long-term, duration: 8 weeks, reproduction
  NOEC: ≥ 200 mg/kg
Zea sp.
  NOEC: 2580 g/ha

From EPA's ToxValDB 9.5 (doi:10.2903/j.efsa.2009.174r)
